Assay results as given in ChEMBL document CHEMBL1201862, “PubChem BioAssay data set” (2004).
The source made the active and inactive calls.

Experiments:
Caspase-3 = target: T1, Caspase-3 (Homo sapiens, UniProt P42574); format: functional;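 also: Dose-response selectivity test against caspase-3 for candidate inhibitors of sentrin-specific proteases (SENPs)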
T1 sequence (P42574 whole entry): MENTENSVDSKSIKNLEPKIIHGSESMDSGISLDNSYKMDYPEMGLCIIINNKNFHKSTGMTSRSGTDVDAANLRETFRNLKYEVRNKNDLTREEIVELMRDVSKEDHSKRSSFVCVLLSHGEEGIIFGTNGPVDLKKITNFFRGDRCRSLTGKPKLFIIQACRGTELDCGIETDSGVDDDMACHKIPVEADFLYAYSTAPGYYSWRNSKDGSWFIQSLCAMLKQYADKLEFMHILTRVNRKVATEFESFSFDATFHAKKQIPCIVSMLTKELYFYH

[1] = target: T2, Sentrin-specific protease 7 (Homo sapiens, UniProt Q9BQF6); format: functional;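 also: Luminescence-based dose-response confirmation of ultra-high-throughput screening hits, measuring inhibition of SENP7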
T2 sequence (Q9BQF6 whole entry): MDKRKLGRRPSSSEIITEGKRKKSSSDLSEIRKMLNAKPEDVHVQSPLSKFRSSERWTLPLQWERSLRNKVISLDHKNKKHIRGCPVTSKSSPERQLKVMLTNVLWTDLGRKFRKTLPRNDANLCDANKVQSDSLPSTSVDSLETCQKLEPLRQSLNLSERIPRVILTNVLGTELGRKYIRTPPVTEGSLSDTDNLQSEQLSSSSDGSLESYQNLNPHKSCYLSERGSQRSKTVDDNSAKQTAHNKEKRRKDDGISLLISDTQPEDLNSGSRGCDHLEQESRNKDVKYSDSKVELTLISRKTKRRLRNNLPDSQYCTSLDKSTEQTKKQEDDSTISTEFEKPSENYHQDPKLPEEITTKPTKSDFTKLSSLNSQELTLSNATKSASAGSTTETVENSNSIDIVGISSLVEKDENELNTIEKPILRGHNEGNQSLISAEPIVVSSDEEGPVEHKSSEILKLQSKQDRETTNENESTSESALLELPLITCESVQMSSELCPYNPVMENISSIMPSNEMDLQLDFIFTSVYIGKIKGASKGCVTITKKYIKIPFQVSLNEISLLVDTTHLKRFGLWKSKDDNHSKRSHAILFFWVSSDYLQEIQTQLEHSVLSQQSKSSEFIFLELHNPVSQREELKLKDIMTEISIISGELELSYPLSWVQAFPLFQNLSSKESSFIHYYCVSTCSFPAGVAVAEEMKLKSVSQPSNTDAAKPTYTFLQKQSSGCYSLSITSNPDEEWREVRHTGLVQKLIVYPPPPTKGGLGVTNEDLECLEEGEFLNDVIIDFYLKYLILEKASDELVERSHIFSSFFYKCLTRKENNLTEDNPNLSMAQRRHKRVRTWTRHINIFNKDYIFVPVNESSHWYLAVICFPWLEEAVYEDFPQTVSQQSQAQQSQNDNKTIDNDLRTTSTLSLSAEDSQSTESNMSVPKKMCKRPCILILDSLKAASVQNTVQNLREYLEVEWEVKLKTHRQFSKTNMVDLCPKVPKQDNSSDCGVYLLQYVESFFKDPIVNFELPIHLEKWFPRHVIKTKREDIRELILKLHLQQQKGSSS

[2] = target: T3, Sentrin-specific protease 6 (Homo sapiens, UniProt Q9GZR1); format: functional;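 also: Luminescence-based dose-response confirmatory assay of SENP6 inhibition, following up an ultra-high-throughput screen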
T3 sequence (Q9GZR1 whole entry): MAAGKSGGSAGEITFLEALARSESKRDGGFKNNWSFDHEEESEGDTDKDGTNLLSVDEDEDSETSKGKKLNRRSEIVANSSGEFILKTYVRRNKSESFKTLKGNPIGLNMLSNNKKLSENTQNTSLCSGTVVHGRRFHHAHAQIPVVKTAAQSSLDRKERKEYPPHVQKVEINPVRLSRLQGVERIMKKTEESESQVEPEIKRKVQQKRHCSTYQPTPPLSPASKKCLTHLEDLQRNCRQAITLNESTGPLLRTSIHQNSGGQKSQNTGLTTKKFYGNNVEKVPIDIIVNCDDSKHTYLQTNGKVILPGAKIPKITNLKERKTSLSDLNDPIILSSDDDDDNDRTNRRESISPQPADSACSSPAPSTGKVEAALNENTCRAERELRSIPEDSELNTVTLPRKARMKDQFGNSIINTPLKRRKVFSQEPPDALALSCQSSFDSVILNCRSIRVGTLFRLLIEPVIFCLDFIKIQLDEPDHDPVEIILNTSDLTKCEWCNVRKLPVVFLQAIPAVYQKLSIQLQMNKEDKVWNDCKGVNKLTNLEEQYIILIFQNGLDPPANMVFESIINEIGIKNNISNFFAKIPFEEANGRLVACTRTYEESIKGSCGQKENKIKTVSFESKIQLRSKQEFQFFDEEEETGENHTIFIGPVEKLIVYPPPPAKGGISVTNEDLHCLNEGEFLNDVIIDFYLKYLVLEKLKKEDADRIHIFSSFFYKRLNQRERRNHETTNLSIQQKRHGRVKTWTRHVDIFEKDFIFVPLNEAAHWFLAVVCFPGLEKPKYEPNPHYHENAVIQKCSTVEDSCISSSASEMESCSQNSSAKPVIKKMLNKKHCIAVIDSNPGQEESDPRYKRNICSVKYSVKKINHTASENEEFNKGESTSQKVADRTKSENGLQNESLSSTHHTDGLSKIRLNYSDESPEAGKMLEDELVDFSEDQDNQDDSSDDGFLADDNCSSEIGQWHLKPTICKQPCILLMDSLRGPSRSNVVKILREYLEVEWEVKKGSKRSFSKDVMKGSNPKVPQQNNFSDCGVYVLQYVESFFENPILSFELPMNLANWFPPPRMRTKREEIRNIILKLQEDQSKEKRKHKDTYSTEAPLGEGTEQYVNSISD

[3] = target: T4, Sentrin-specific protease 8 (Homo sapiens, UniProt Q96LD8); format: functional;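 also: luminescence read-out of SENP8 inhibition, dose-response confirmation following an ultra-high-throughput screen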
T4 sequence (Q96LD8 whole entry): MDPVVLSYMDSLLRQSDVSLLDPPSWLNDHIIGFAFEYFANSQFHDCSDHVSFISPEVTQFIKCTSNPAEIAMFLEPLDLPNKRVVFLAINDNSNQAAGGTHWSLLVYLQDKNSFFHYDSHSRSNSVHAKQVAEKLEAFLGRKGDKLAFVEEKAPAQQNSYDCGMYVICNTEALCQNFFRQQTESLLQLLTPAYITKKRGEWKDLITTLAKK

Protein skinhead-1 = target: T5, Protein skinhead-1 (Caenorhabditis elegans, UniProt P34707); format: functional
T5 sequence (P34707 whole entry): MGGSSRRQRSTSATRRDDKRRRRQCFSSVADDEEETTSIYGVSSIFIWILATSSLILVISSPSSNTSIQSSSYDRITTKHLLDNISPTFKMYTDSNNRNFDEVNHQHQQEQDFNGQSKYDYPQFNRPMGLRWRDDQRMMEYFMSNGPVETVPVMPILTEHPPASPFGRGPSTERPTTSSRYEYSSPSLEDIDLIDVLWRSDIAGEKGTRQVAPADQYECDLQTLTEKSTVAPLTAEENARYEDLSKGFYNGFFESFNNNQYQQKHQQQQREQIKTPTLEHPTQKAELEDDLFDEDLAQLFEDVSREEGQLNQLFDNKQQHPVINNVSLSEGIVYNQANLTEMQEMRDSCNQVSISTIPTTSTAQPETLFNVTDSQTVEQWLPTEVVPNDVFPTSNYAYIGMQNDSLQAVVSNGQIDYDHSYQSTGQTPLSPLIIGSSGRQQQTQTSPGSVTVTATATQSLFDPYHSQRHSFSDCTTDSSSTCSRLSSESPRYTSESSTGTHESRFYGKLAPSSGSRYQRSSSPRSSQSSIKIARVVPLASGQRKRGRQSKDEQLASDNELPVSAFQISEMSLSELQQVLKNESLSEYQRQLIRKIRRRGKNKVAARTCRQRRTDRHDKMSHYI

Cytochrome P450 2C19 = Cytochrome P450 2C19 (Homo sapiens, UniProt P33261); test: Cytochrome panel assay with activity outcomes. Panel member name: p450-cyp2c19 Compounds with AC50 equal or less than 10 uM are considered active; format: functional; settings: read-out: AC50
Cytochrome P450 2C9 = Cytochrome P450 2C9 (Homo sapiens, UniProt P11712)
Cytochrome P450 3A4 = Cytochrome P450 3A4 (Homo sapiens, UniProt P08684);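 also: CYP3A4 tested as one member of a cytochrome P450 panel screen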
[4] = target: T6, Heat shock factor protein 1 (Mus musculus, UniProt P38532); test: inhibition of MG132-induced HSE-luciferase signal, confirmation, cell-based, NIH3T3, luminescence, dose retest (AID 2382); format: functional;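 also: NIH3T3 fibroblasts with HSF1-driven luciferase reporter stressed by proteasome inhibitor MG132; luminescence from HSF1-driven luciferase expression after 8 hours of MG132 stress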
T6 sequence (P38532 whole entry): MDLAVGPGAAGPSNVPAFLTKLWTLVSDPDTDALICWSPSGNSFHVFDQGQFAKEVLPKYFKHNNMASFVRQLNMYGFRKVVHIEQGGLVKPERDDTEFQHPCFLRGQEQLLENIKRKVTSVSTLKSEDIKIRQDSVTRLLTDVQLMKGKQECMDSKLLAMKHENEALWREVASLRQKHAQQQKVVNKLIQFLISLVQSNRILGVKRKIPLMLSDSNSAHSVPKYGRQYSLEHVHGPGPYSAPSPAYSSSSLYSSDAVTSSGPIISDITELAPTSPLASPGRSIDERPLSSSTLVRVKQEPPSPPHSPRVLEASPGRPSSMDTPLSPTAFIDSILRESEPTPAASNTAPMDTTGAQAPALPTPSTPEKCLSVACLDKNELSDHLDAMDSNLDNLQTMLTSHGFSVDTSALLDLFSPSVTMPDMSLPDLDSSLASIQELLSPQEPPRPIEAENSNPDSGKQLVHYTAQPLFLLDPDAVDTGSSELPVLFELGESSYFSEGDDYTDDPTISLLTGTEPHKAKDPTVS

Cytochrome P450 1A2 = target: T7, Cytochrome P450 1A2 (Homo sapiens, UniProt P05177);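 also: PubChem cytochrome P450 panel assay, CYP1A2 panel member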
T7 sequence (P05177 whole entry): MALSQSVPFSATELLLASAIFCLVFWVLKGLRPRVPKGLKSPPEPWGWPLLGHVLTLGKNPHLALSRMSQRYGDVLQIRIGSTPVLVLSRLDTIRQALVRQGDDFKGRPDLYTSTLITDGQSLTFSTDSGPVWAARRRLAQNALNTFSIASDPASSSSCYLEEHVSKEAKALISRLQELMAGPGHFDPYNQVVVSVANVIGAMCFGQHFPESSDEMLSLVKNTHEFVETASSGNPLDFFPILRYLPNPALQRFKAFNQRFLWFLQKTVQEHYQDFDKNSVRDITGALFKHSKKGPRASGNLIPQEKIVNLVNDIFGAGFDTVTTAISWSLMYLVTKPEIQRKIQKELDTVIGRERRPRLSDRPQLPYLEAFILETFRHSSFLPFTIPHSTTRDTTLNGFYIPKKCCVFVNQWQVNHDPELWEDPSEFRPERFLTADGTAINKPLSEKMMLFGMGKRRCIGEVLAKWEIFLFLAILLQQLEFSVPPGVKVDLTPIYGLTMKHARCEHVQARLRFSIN

[5] = HEp-2 cell cytotoxicity, dose response, cytotoxicity control for RSV inhibitor project, HTS (AID 2410); format: functional; settings: human respiratory syncytial virus
[6] = inhibitors of intracellular T. cruzi replication, confirmation, NIH3T3 host cells, beta-gal luminescence (AID 2044); format: functional, cell-based;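 also: intracellular parasites grown in NIH/3T3 mouse fibroblasts as host cells; luminescent beta-galactosidase reporter signal from transgenic T. cruzi replicating inside host cells; inhibitors lower the luminescence signal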
[7] = microbe, parasite or virus in culture; format: functional; settings: Mycobacterium tuberculosis
[8] = cytotoxicity toward NIH3T3 fibroblasts, dose response, counter-screen, cell-based, ATP luminescence, mouse fibroblasts (AID 2010); format: functional;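 also: cells exposed to compound for about 90 hours before reading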
INS1 = test: beta cell apoptosis inhibitors, cytokine rescue, dose response, luminescence, retest (AID 449756); format: functional, cell-based; settings: Rattus norvegicus;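 also: cell death triggered by IL-1 beta plus TNF-alpha plus IFN-gamma mixture; protective hits raise ATP signal compared with cytokine alone wells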
[9] = Shn3 3'UTR reporter inhibitors, dose response, cell-based, Clone20 osteoblasts, firefly luciferase, cherry-picked (AID 624132); format: functional;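 also: firefly luciferase luminescence from reporter carrying the Shn3 3'UTR in osteoblasts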
[10] = HepG2 cell cytotoxicity, dose response, cytotoxicity control for Shn3 inhibitor project, CellTiter-Glo, cherry-picked (AID 624134); format: functional, cell-based
[11] = control 3'UTR Renilla luciferase suppression, dose response, counter-screen for Shn3 inhibitor project, cell-based, Clone20-Shn3RL, cherry-picked (AID 624133); format: functional

Cytochrome P450 3A4, sequence (P08684 whole entry): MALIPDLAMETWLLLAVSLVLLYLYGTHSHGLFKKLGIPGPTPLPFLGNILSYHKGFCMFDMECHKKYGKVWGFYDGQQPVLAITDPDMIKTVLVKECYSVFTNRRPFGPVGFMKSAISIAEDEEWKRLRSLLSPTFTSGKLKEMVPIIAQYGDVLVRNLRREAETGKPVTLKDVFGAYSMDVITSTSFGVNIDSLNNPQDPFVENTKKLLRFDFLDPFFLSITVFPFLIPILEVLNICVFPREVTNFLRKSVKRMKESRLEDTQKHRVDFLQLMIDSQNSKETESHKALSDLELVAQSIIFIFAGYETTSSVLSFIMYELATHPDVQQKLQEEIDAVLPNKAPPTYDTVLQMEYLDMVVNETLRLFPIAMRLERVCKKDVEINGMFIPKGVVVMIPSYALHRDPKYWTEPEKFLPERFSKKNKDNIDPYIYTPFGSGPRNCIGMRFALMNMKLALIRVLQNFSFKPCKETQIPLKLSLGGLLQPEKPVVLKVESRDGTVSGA
Cytochrome P450 2C9, sequence (P11712 whole entry): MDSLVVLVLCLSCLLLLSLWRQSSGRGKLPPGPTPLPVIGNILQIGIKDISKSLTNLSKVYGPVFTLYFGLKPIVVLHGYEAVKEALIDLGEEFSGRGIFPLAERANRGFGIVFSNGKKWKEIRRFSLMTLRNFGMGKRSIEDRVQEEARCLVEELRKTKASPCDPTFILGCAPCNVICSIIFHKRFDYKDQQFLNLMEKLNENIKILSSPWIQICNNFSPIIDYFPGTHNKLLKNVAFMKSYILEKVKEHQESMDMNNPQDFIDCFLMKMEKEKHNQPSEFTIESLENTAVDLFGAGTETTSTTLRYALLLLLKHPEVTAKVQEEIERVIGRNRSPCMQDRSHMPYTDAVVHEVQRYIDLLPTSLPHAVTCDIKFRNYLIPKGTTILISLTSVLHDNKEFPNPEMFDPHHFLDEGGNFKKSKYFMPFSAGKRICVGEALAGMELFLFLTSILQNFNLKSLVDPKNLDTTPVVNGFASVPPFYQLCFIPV
Cytochrome P450 2C19, sequence (P33261 whole entry): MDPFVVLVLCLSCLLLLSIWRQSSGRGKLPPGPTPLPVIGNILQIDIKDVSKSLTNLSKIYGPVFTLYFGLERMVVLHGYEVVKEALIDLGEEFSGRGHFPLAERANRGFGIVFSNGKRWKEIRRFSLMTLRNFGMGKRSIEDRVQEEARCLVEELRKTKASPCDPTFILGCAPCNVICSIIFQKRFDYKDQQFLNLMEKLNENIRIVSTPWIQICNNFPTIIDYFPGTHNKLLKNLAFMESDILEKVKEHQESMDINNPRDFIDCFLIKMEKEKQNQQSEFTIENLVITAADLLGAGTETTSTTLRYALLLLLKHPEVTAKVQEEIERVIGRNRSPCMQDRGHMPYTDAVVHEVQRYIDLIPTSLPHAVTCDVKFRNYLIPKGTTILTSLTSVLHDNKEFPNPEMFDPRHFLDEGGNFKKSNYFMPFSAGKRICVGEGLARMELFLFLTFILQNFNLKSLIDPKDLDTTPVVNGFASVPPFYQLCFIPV

| Compound | IC50 (Caspase-3) | IC50 [1] | IC50 [2] | IC50 [3] | AC50 (Cytochrome P450 3A4) | other results |
| --- | --- | --- | --- | --- | --- | --- |
| Cc1ccccc1-c1nnc(-c2ccccc2C)o1 | 20.5 µM (active) | 12.1 µM (active) | 6.65 µM (active) | 95.5 µM (active) | – | IC50 (Protein skinhead-1): > 100 µM (inactive) |
| O=C(COc1ccc(Cc2ccccc2)cc1)c1ccc(F)cc1 | 39.9 µM (active) | 15.6 µM (active) | 69.3 µM (active) | > 100 µM (inactive) | – | – |
| O=C(Oc1ccccc1)N1CCC2(CC1)CCN(c1ccccn1)CC2 | – | – | – | – | inconclusive | AC50 (Cytochrome P450 2C19): 20 µM (inconclusive); AC50 (Cytochrome P450 2C9): 31.6 µM (inconclusive) |
| c1ccn(-c2ccc(N3CCOCC3)cc2)c1 | – | – | – | – | inconclusive | EC50 [4]: > 195 µM (not active) |
| Cc1cccc(OCc2cc(-c3ccccc3)no2)c1C | 26.6 µM (active) | 5.47 µM (active) | 20.1 µM (active) | 42.8 µM (active) | – | – |
| O=C(Nc1ccccc1)N1CCC2(CC1)CCN(C(=O)c1ccco1)CC2 | – | – | – | – | inconclusive | AC50 (Cytochrome P450 2C19): 39.8 µM (inconclusive); AC50 (Cytochrome P450 1A2): 10 µM (inconclusive) |
| O=C(Cn1cc(SCc2ccc(Cl)cc2)c2ccccc21)N1CCOCC1 | 27.1 µM (active) | 6.14 µM (active) | 10.3 µM (active) | > 100 µM (inactive) | – | – |
| Cc1cccnc1Nc1nc(-c2ccc(O)cc2O)cs1 | 41.8 µM (active) | 3.79 µM (active) | 8 µM (active) | 15.5 µM (active) | – | CC50 [5]: 27 µM (active) |
| O=C1c2ccccc2-c2nnc(-c3ccc(F)cc3)cc21 | 2.59 µM (active) | 1.9 µM (active) | 2.5 µM (active) | 3.58 µM (active) | – | – |
| Cc1c(Cl)cccc1NC(=O)CN1CCC(C(O)(c2ccccc2)c2ccccc2)CC1 | – | – | – | – | inconclusive | EC50 [6]: 2.33 µM (active); CC50 [7]: > 40 µM (active); EC50 [8]: > 30 µM (not active) |
| COc1ccc(Nc2nc(N3CCCCC3)c3ccccc3n2)cc1 | – | – | – | – | inconclusive | AC50 (INS1): 4.63 µM (active); AC50 [9]: 2.11 µM (active); AC50 [10]: 36.5 µM (active); AC50 [11]: 6.45 µM (active); AC50 (Cytochrome P450 2C9): 17.8 µM (inconclusive) |
| Cc1nc2ncnn2c(C)c1CCC(=O)N1CCN(C(=O)c2ccco2)CC1 | – | – | – | – | inconclusive | – |
